Laboratory results taken from PMC9214036, “Design and Synthesis of Novel PRMT1 Inhibitors and Investigation of Their Effects on the Migration of Cancer Cell” (Frontiers in Chemistry, 2022).
Where a name gives a salt, the structure may show the parent alone.

Legend:
PRMT1 = PRMT1 (Homo sapiens, UniProt Q99873); assay: Radioactive PRMT1 methylation inhibition assay ([3H]-SAM, biotinylated histone H4 peptide); assay type: biochemical; conditions: for inhibition at 10 µM: compound at 10 μM, read-out: % Inhibition of PRMT1 (at 10 μM); for IC50: radioactive methylation assay, read-out: IC50 (μM) against PRMT1
Description: A series of 2,5-substituted furan and 2,4-substituted thiazole derivatives were synthesized and screened for their inhibitory effects on PRMT1 by using the radioactive PRMT1 methylation inhibition assay, which measured the amount of methyl groups that transferred from [^3H]-SAM to a biotinylated histone H4 peptide [ac-[…](Biotin)] (Tables 1–3).
The enzyme inhibitory activities and selectivity were measured by the radioisotope assay and AlphaLISA assay in ShangHai Chempartner Co., Ltd., according to the standard protocol. […] After 250 nL of compound solutions were added to the assay plate, 15 μl of PRMT1 enzyme solution or ×1 assay buffer for negative control was transferred to each well of prepared compound stock plates and the whole system (the final concentration of PRMT1 was 0.5 nM or 2 nM in the system) was incubated for 15 min at room temperature. […] Afterward, the reaction was stopped with the addition of 5 μl cold SAM solution to each well. Then, 25 μl volume per well was transferred to a Flashplate from the assay plate and incubated for a minimum of 1 h at room temperature. Finally, the Flashplate was washed with dH2O and 0.1% Tween-20 three times and then the reading plate in Microbeta using the program ^3H-Flashplate. The data were analyzed in GraphPad Prism 5 to obtain IC50 values.

PRMT1, sequence (Q99873 whole entry): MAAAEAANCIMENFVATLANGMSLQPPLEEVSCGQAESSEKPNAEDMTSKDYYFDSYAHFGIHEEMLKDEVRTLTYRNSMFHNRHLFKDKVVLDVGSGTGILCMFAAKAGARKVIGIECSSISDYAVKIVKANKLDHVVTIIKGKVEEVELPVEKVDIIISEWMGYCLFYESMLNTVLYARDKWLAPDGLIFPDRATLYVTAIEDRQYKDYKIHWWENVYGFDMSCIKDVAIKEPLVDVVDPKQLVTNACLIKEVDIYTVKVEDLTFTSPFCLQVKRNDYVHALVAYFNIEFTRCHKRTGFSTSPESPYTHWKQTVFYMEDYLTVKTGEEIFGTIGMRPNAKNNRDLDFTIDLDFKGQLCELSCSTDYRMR

inhibition at 10 µM (PRMT1) [%]	melting point [°C]	PRMT1 IC50 compared with DB75 (PRMT1; fold weaker than DB75)	PRMT1 IC50 compared with SAH (PRMT1; fold weaker than SAH)	IC50 (PRMT1) [µM]	Structure (SMILES)
35.97 ± 0.2	–	–	–	–	CNCCN(C)Cc1ccc(-c2ccc(C(N)=NO)c(F)c2)o1 [Compound 1f, N′-[5-(3-Fluoro-4-N-hydroxyamidino-phen-1-yl)-furan-2-yl-methyl]-N,N′-dimethylethylenediamine Hydrochloride]
35.99 ± 0.09	64.2 to 65.2	–	–	–	CNCCN(C)Cc1ccc(-c2cccc(N)c2)o1.Cl [Compound 1d, N′-[5-(3-Aminophenyl)-furan-2-yl-methyl]-N,N′-dimethylethylenediamine Hydrochloride]
92.12 ± 0.28	75.8 to 78.2	four times weaker than DB75	about two times weaker than SAH	1.29 ± 0.12	CNCCN(C)Cc1ccc(-c2ccc(C(=N)N)nc2)o1.Cl [Compound 1l, N′-[5-(2-Amidino-5-pyridyl)furan-2-yl-methyl]-N,N′-dimethylethylenediamine Hydrochloride]
48 ± 0.02	–	–	–	–	CNCCN(C)Cc1ccc(-c2ccc(C(=O)NN)cc2)o1 [Compound 1b, N′-[5-(4-Formylhydrazide-phen-1-yl)-furan-2-yl-methyl]-N,N′-dimethylethylenediamine Hydrochloride]
50 ± 0.18	60.2 to 61.1	–	–	21.4 ± 12.8	CNCCN(C)Cc1ccc(-c2ccc(N)cc2)o1.Cl [Compound 1c, N′-[5-(4-Aminophenyl)-furan-2-yl-methyl]-N,N′-dimeth-ylethylenediamine Hydrochloride]
–	231.2 to 232.8	–	–	–	CNCCN(C)Cc1ccc(-c2ccc(C(N)=NO)cc2)o1 (as salt: hydrochloride) [Compound 1e, N′-[5-(4-N-Hydroxyamidino-phen-1-yl)-furan-2-yl-meth-yl]-N,N′-dimethylethylenediamine Hydrochloride]
48 ± 0.02	95.9 to 98.3	–	–	10.8 ± 1.3	CNCCN(Cc1ccc(-c2ccc(C(=N)N)nc2)o1)C1CC1.Cl [Compound 1m, N-Methyl-N′-[5-(2-amidino-5-pyridyl)furan-2-yl-methyl]-N′-cyclopropylethylenediamine Hydrochloride]
–	223 to 225	–	–	–	CNCCN(C)Cc1ccc(-c2ccc(Cl)c(C(=N)N)c2)o1 (as salt: hydrochloride) [Compound 1k, N′-[5-(3-Amidino-4-chloro-phen-1-yl)-furan-2-yl-methyl]-N,N′-dimethylethylenediamine Hydrochloride]
–	246.2 to 246.9	–	–	–	CNCCN(C)Cc1ccc(-c2ccc(C(=O)NN)cc2)o1 (as salt: hydrochloride) [Compound 1b, N′-[5-(4-Formylhydrazide-phen-1-yl)-furan-2-yl-methyl]-N,N′-dimethylethylenediamine Hydrochloride]
–	60.8 to 63.2	–	–	–	CNCCN(C)Cc1ccc(-c2cccc(C(N)=NO)c2)o1 (as salt: hydrochloride) [Compound 1g, N′-[5-(3-N-Hydroxyamidino-phen-1-yl)-furan-2-yl-methyl]-N,N′-dimethylethylenediamine Hydrochloride]
32	–	–	–	–	CNCCN(C)Cc1ccc(-c2ccc(C(N)=NO)cc2)o1 [Compound 1e, N′-[5-(4-N-Hydroxyamidino-phen-1-yl)-furan-2-yl-meth-yl]-N,N′-dimethylethylenediamine Hydrochloride]
–	212.2 to 214.6	–	–	–	CNCCN(C)Cc1ccc(-c2ccc(C(N)=O)cc2)o1 (as salt: hydrochloride) [Compound 1a, N′-[5-(4-Formamide-phen-1-yl)-furan-2-yl-methyl]-N,N′-dimethylethylenediamine Hydrochloride]
10.6 ± 2.24	–	–	–	–	CNCCN(C)Cc1ccc(-c2ccc(C(N)=O)cc2)o1 [Compound 1a, N′-[5-(4-Formamide-phen-1-yl)-furan-2-yl-methyl]-N,N′-dimethylethylenediamine Hydrochloride]
39.98 ± 0.19	–	–	–	–	CNCCN(C)Cc1ccc(-c2cccc(C(N)=NO)c2)o1 [Compound 1g, N′-[5-(3-N-Hydroxyamidino-phen-1-yl)-furan-2-yl-methyl]-N,N′-dimethylethylenediamine Hydrochloride]
89.02 ± 0.05	223.4 to 224.8	–	–	2.41 ± 0.18	CN(CCN)Cc1ccc(-c2ccc(C(=N)N)nc2)o1.Cl [Compound 1o, N′-[5-(2-Amidino-5-pyridyl)furan-2-yl-methyl]-N′-methylethylenediamine Hydrochloride]
–	216.8 to 218.6	–	–	–	CNCCN(C)Cc1ccc(-c2ccc(C(N)=NO)c(F)c2)o1 (as salt: hydrochloride) [Compound 1f, N′-[5-(3-Fluoro-4-N-hydroxyamidino-phen-1-yl)-furan-2-yl-methyl]-N,N′-dimethylethylenediamine Hydrochloride]
–	156.5 to 159.2	–	–	–	CNCCN(C)Cc1ccc(-c2ccc(C(=N)N)c(F)c2)o1 (as salt: hydrochloride) [Compound 1i, N′-[5-(3-Fluoro-4-amidino-phen-1-yl)-furan-2-yl-methyl]-N,N′-dimethylethylenediamine Hydrochloride]
68 ± 0.02	–	–	–	4.42 ± 0.63	CNCCN(C)Cc1ccc(-c2ccc(C(=N)N)c(F)c2)o1 [Compound 1i, N′-[5-(3-Fluoro-4-amidino-phen-1-yl)-furan-2-yl-methyl]-N,N′-dimethylethylenediamine Hydrochloride]
73.51 ± 0.06	197.7 to 199.3	–	–	4.68 ± 0.26	Cl.N=C(N)c1ccc(-c2ccc(CN3CCNCC3)o2)cn1 [Compound 1n, N′-[5-(2-Amidino-5-pyridyl)furan-2-yl-methyl]-piperazine Hydrochloride]
76.5 ± 0.01	–	–	–	2.5 ± 0.91	CNCCN(C)Cc1ccc(-c2ccc(Cl)c(C(=N)N)c2)o1 [Compound 1k, N′-[5-(3-Amidino-4-chloro-phen-1-yl)-furan-2-yl-methyl]-N,N′-dimethylethylenediamine Hydrochloride]

Structure (SMILES)	inhibition at 10 µM (PRMT1) [%]	melting point [°C]	PRMT1 IC50 compared with DB75 (PRMT1; fold weaker than DB75)	PRMT1 IC50 compared with SAH (PRMT1; fold weaker than SAH)	IC50 (PRMT1) [µM]
N=C(N)c1ccc(-c2ccc(-c3ccc(C(=N)N)cc3)o2)cc1 [DB75, furamidine, reference compound]	98.13 ± 0.27	–	–	–	0.31 ± 0.04
